Experimental findings from BindingDB's records for doi:10.1096/fasebj.10.12.8903510 (Roche Bioscience, 1996) are described below.

Sequence of 5-hydroxytryptamine receptor 4 (O70528 whole entry): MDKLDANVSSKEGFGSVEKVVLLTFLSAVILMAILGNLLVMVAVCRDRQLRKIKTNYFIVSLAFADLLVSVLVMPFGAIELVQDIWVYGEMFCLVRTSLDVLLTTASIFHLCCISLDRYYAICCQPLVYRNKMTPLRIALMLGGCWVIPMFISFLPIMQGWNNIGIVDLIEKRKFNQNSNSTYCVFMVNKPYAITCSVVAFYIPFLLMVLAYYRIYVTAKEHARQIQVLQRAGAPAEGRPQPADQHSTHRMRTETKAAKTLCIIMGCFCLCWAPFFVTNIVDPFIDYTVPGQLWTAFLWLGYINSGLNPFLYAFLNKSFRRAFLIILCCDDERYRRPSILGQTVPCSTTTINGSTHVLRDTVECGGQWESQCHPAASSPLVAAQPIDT

This test has as its target 5-hydroxytryptamine receptor 4 (Cavia porcellus, UniProt O70528).
As to `Cn1cc(C(=O)OCC2CCN(CCNS(C)(=O)=O)CC2)c2ccccc21` [GR 113808], the affinity corresponds to a Ki of 0.06 nM.

`COc1[nH]c2ccc(F)cc2c1C(=O)OCC1CCN(CCNS(C)(=O)=O)CC1` [GR-125487] registered a Ki of 0.03 nM.

Regarding `CCCCN1CCC(CNC(=O)c2c3n(c4ccccc24)CCCO3)CC1` [SB-207266], affinity was put at a Ki of 0.39 nM.

Turning to `COc1cc(COc2cc(N)c(Cl)cc2C(=O)CCCCN2CCCCC2)cc(OC)c1` [RS-67532], the Ki turned out to be 1.99 nM.

The compound `COc1cc(N)c(Cl)cc1C(=O)OCCCN1CCCCC1` displayed an inhibition constant Ki of 3.98 nM.

As for `CCN(CC)CCOC(=O)c1cc(Cl)c(N)cc1OC` [SDZ-205557], the Ki amounted to 2.51 nM.

For the compound `CCCCN1CCC(COC(=O)c2cc(Cl)c(N)c3c2OCCO3)CC1` [CAS_121881], the Ki was found to be 0.01 nM. This Ki lies about 250-fold lower than the previous one.
